Assay in all cases: relative viability (nuclei count vs DMSO), 5 days (fraction); higher = more cells survive
Compound in the test “CUDC-101 + Pemetrexed”: C#Cc1cccc(Nc2ncnc3cc(OC)c(OCCCCCCC(=O)NO)cc23)c1 [CUDC-101] + Nc1nc2[nH]cc(CCc3ccc(C(=O)N[C@@H](CCC(=O)O)C(=O)O)cc3)c2c(=O)[nH]1 [Pemetrexed] (partner 0.2 µM)
The gist of the method:
(§1)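 Medians of duplicate plates are given as relative viability. That measure is the nuclei count in treated wells divided by the count in vehicle wells. Counts were taken on 4× images of lung cancer cell lines in 1536-well plates, 5 days after pin-tool dosing the day after seeding with one drug alone or a fixed anchor-drug dose plus five library-drug doses (not always all listed) in √10 steps.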

Compound in test [1]: C1=CC=C2C(=C1)N=C(S2)C(C#N)C3=NC(=NC=C3)NCCC4=CN=CC=C4 + C[C@]1(O)C[C@@H](c2nc(-c3ccc4ccc(-c5ccccc5)nc4c3)c3c(N)nccn32)C1 [Linsitinib] (partner 1 µM)
The gist of the method:
as §1

Compound in test [2]: C1=CC=C2C(=C1)N=C(S2)C(C#N)C3=NC(=NC=C3)NCCC4=CN=CC=C4 + Cc1cc(Nc2cc(N3CCN(C)CC3)nc(Sc3ccc(NC(=O)C4CC4)cc3)n2)n[nH]1 [Tozasertib] (partner 0.1 µM)
The gist of the method: as §1

Compound in the test “NVP-TAE684 + Foretinib”: COc1cc(N2CCC(N3CCN(C)CC3)CC2)ccc1Nc1ncc(Cl)c(Nc2ccccc2S(=O)(=O)C(C)C)n1 [NVP-TAE684] + COc1cc2c(Oc3ccc(NC(=O)C4(C(=O)Nc5ccc(F)cc5)CC4)cc3F)ccnc2cc1OCCCN1CCOCC1 [Foretinib] (partner 0.25 µM)
The procedure, abridged: as §1

Turning to UMC-11, the relative viability is 0.78 with CUDC-101 + Pemetrexed (first compound 0.01 µM); 0.72 in the test with CUDC-101 + Pemetrexed (first compound 0.03162 µM); 0.639 in the test with CUDC-101 + Pemetrexed (first compound 0.1 µM); 0.415 with CUDC-101 + Pemetrexed (first compound 0.3162 µM); 0.219 with CUDC-101 + Pemetrexed (first compound 1 µM); 0.809 in test [1] (first compound 0.005 µM). The relative viability in test [1] (first compound 0.01581 µM) amounted to 0.968; in test [1] (first compound 0.05 µM), 0.967; in test [1] (first compound 0.1581 µM), 1.1; in test [1] (first compound 0.5 µM), 0.917; in test [2] (first compound 0.005 µM), 0.212; in test [2] (first compound 0.01581 µM) it was 0.214. Moreover, the relative viability in test [2] (first compound 0.05 µM) is 0.177; in test [2] (first compound 0.1581 µM), 0.249; in test [2] (first compound 0.5 µM), 0.206; in the test with NVP-TAE684 + Foretinib (first compound 0.2 µM), 1.03; with NVP-TAE684 + Foretinib (first compound 0.6325 µM) it was 0.926; in the test with NVP-TAE684 + Foretinib (first compound 2 µM), 0.334.

The values are drawn from the supplement of paper PMC10307832.
